Measurements reported in US10017585B2, “Methods and compositions for promoting hair growth” (Momenta Pharmaceuticals, Inc., priority 2010, dated 2018).

Tested on: female BALB/c mice
Test: Hair regrowth score in shaved mice, MONC402 in combination with chemotherapy, 27 days
Format: in vivo
Procedure: The backs of eight week old female BALB/c mice were shaved. Osmotic pumps containing either saline or MONC402 were implanted into 64 mice (32 saline, 32 MONC402). Mice were further divided into groups receiving either saline or Docetaxel (10 mg/kg) once weekly ip starting 13 days after pump implant. Additionally, there was one group of naïve mice (n=4) as well as one group of mice receiving chemotherapy alone (Docetaxel, 10 mg/kg, once weekly ip starting 6 days after pump implant, n=16) which were not subject to shaving or pump implant. Staples used to close the implantation wound were removed 7 days later. Twenty seven days after pump implant, mice were scored for hair growth over the shaved area.

[1] = Docetaxel (10 mg/kg weekly ip) + Saline pump, 27 days

Structure (SMILES): CC(=O)O[C@@]12CO[C@@H]1C[C@H](O)[C@@]1(C)C(=O)[C@H](O)C3=C(C)[C@@H](OC(=O)[C@H](O)[C@@H](NC(=O)OC(C)(C)C)c4ccccc4)C[C@@](O)([C@@H](OC(=O)c4ccccc4)[C@H]21)C3(C)C [Docetaxel]
- Number of animals scored 4: full growth (indistinguishable from unshaved) (Docetaxel 10 mg/kg once weekly ip alone, No shaving or pump implant): 16/16
- Number of animals scored 1.5 [1]: 1/16
- Number of animals scored 2: light growth [1]: 7/16
- Number of animals scored 2.5 [1]: 2/16
- Number of animals scored 3: patchy/heavy growth [1]: 6/16
